Where no end group is shown, it is not given here.
Experiments:
GFP-expressing EIEC = test: GFP efflux / permeabilization of GFP-expressing EIEC; format: cell-based, Enteroinvasive Escherichia coli
Experimental: Flow cytometric assay to measure the efflux of GFP from GFP-expressing EIEC was performed using a FACS Canto II (Biosciences, CA). […] The number of internalized EIEC in HeLa cells (pcDNA 3.1 or pcDNA 3.1-Flag-Romo1/Control siRNA, Romo1 siRNA-1, or Romo1 siRNA-2) was measured using CFDA-stained EIEC. The data were measured and analyzed with FlowJo software (Tree Star, Inc., Ashland, OR).

[1] = test system: A. baumannii (ATCC 19606); test: Murine model of sepsis; format: in vivo, mouse
[2] = test system: Vancomycin-resistant E. faecium; format: cell-based, Enterococcus faecium; conditions: 1 h, pH 7.4
Experimental: (§1) The minimum bactericidal concentration was determined as previously described with minor modifications ([29]). Briefly, bacteria (5 × 10^5 CFU/ml) in 10 mM phosphate buffer (pH 7.4) with a 1% volume of TS broth were incubated with various peptide dilutions in a 96-well plate. After incubation for 1 h, samples were placed on TS agar plates and incubated overnight at 37°C. The peptide concentration at which no colonies were identified on the plate was determined to be the MBC.

C57BL/6 mouse = test: Single-dose safety in mice; conditions: single dose 100 mg/kg intravenously; tracked for 15 days; compared to PBS
CRPA = test: Murine model of sepsis caused by MDR bacteria; format: in vivo, mouse; conditions: for increase of survival rate: 8 × 10^7 CFU iv, AMPR-11 10 mg/kg iv single dose, imipenem 10 mg/kg ip four times q12h, 15 mice/group
[3] = test system: Vancomycin-resistant S. aureus; format: cell-based, Staphylococcus aureus; conditions: 1 h, pH 7.4
Experimental: as §1

[4] = Protein lipid overlay (PLO) assay; format: binding; conditions: TAMRA-AMPR-11 2 μg/ml, 2 h; 20 pmol of each lipid (PC, PG, PS, PE, PA, PI, lipid A, CL) on nitrocellulose
Experimental: The experiment was performed as previously described ([53]) with minor modifications. The lipid of PC, PG, PS, PE, PA, PI, lipid A, or CL was diluted and placed on the supported nitrocellulose membrane at 20 pmol and dried at room temperature. The membrane was blocked with Tris-buffered saline-Tween 20 (TBS-Tween 20, 50 mM Tris-HCl, 150 mM NaCl, and 0.1% Tween 20) containing 0.2% fatty acid-free bovine albumin for 1 h. After several washes in TBS, the membrane was incubated with TAMRA-AMPR-11 at 2 μg/ml in blocking solution for 2 h. After several washes with TBS-Tween 20, the fluorescent signal was detected using a fluorescent image scanner (Typhoon FLA 9500).

[5] = test system: K. pneumoniae (ATCC 13883); test: Murine model of sepsis; format: in vivo, mouse
[6] = Effect of blood components on antimicrobial activity; format: in vitro ADME; conditions: mouse RBCs, human LDL, human HDL, bovine serum albumin; incubated for indicated times, then bacteria 1 h; CFU assay
S. pneumoniae = format: cell-based; conditions: 1 h, pH 7.4
Experimental: as §1

Mouse RBCs = format: cell-based
Experimental: Mouse RBCs were rinsed several times with PBS and centrifuged for 10 min at 2,000 rpm. […] After incubating for 1 h, the cells were pelleted at 1,000 × g for 10 min, and the absorbance of the supernatant was measured at 570 nm. The OD of the control was that of PBS (blank), and 1% Triton X-100 was used as the positive control.

[7] = Functional half-life of antimicrobial activity in human serum; format: in vitro ADME; conditions: human serum (H4522; Sigma-Aldrich); pre-incubation 0, 5, 15, 30, 45, 60, or 75 min, then P. aeruginosa or S. aureus for 1 h; read-out CFU assay (antimicrobial activity)
MRSA = test: Murine model of sepsis caused by MDR bacteria; format: in vivo, mouse; conditions: for increase of survival rate: 3 × 10^8 CFU iv, AMPR-11 10 mg/kg iv single dose, imipenem 10 mg/kg ip four times q12h, 15 mice/group
[8] = Functional half-life of antimicrobial activity in mouse plasma; format: in vitro ADME; conditions: 75% PBS and 25% mouse plasma (EDTA separation); pre-incubation 0, 5, 15, 30, 45, 60, or 75 min, then P. aeruginosa or S. aureus for 1 h; read-out CFU assay (antimicrobial activity)
CRAB = test: Murine model of sepsis caused by MDR bacteria; format: in vivo, mouse; conditions: 5 × 10^8 CFU iv; AMPR-11 10 mg/kg iv single dose; imipenem 10 mg/kg ip four times q12h; 15 mice/group
[9] = test system: P. aeruginosa (ATCC 27853); test: Murine model of sepsis; format: in vivo, mouse
CRKP = test: Murine model of sepsis caused by MDR bacteria; format: in vivo, mouse; conditions: 8 × 10^8 CFU iv; AMPR-11 10 mg/kg iv single dose; imipenem 10 mg/kg ip four times q12h; 15 mice/group
[10] = CF release from CF-encapsulated large unilamellar vesicles; conditions: 1 μg/ml of peptide; fluorescence; compared with melittin, magainin 2, daptomycin
Experimental: Portions (10 μl) of the lipid mixture of E. coli total lipid extract were dried and rehydrated with 50 mM CF, 100 mM sucrose, and 5 mM HEPES/KOH (pH 7.4). Multilamellar liposomal suspensions were extruded with a 0.1-μm polycarbonate membrane using an Avanti Mini Extruder and purified by a PD-10 column (GE Healthcare, Buckinghamshire, United Kingdom) as previously described. The peptides were added to LUVs, and CF leakage was measured using Fluroskan Ascent FL (Thermo Labsystems, UK) in external buffer (150 mM KCl and 10 mM HEPES/Tris; pH 7). CF leakage was calculated using the following formula: CF leakage (%) = 100 × (F – F0)/(Fmax – F0), where F is the measured fluorescence intensity, F0 is the basal LUV fluorescence intensity, and Fmax is the fluorescence intensity of LUVs treated with 0.2% Triton X-100.

S. aureus (ATCC 29213) [11] = test: Murine model of sepsis; format: in vivo, mouse
[12] = test system: P. aeruginosa (ATCC 27853); format: cell-based, Pseudomonas aeruginosa; conditions: ATCC 27853, 1 h, pH 7.4
Experimental: as §1

S. aureus (ATCC 29213) [13] = format: cell-based, Staphylococcus aureus; conditions: ATCC 29213, 1 h, pH 7.4
Experimental: as §1

EIEC = EIEC growth by spectrophotometry; format: cell-based, Enteroinvasive Escherichia coli; conditions: 1 μg/ml of Romo1 protein
[14] = mouse blood after 48 h of infection, 10 mg/kg iv single dose
[15] = peptides iv 1 h after infection, tail vein blood 1 h after peptide administration

KTMMQSGGTFGTFMAIGMGIR [AMPR-11]
time to kill bacteria (GFP-expressing EIEC; Fig. 2E, TAMRA-AMPR-11 with GFP-expressing EIEC): ≤ 10 min | increase of survival rate ([1]; C57BL/6N mice, 4 × 10^8 CFU iv, AMPR-11 10 mg/kg iv single dose 1 h after infection, 15 mice/group, 15 days): > 60% | bacterial load in blood [1, 14]: decrease in the bacterial load in blood | MBC value Vancomycin-resistant E. faecium [2]: 100 µg/mL | clinical signs (death, weight loss) (C57BL/6 mouse): no severe clinical signs such as death or weight loss | increase of survival rate (CRPA): > 60% | antimicrobial activity in blood (CFU counts) compared with known AMPs (CRPA; [15]): statistically better than that of magainin 2, LL-37, or daptomycin | MBC value Vancomycin-resistant S. aureus [3]: 120 µg/mL | lipid preference (binding) [4]: specifically bound to lipid A and cardiolipin (CL) | increase of survival rate ([5]; C57BL/6N mice, 8 × 10^8 CFU iv, AMPR-11 10 mg/kg iv single dose 1 h after infection, 15 mice/group, 15 days): > 60% | bacterial load in blood [5, 14]: decrease in the bacterial load in blood | antimicrobial activity after incubation with blood components [6]: not inhibited by RBCs, LDL, HDL, or albumin | MBC value S. pneumoniae (S. pneumoniae): 100 µg/mL | hemolytic activity (Mouse RBCs): less cytotoxicity (Fig. 4A) and hemolytic activity (Fig. 4B) than magainin 2 and daptomycin | functional half-life in serum [7]: ~40 min | increase of survival rate (MRSA): > 60% | bacterial load in the liver, spleen, and kidney (MRSA; CFU assay of organ homogenates, 10 mg/kg iv single dose): decrease in bacterial load in the liver, spleen, and kidney | antimicrobial activity in blood (CFU counts) compared with known AMPs (MRSA; [15]): statistically better than that of magainin 2, LL-37, or daptomycin | functional half-life in plasma [8]: approximately 50 min | increase of survival rate (CRAB): > 60% | increase of survival rate ([9]; C57BL/6N mice, 2 × 10^7 CFU iv, AMPR-11 10 mg/kg iv single dose 1 h after infection, 20 mice/group, 15 days): > 60% | bacterial load in blood [9, 14]: decrease in the bacterial load in blood | increase of survival rate (CRKP): > 60% | CF release [10]: to a similar extent as melittin | bacterial load in blood over time (S. aureus (ATCC 29213) [11]; AMPR-11 administered immediately after infection, tail vein blood, CFU relative to PBS group): rapidly decreased the bacterial load in blood | increase of survival rate (S. aureus (ATCC 29213) [11]; C57BL/6N mice, 1 × 10^8 CFU iv, AMPR-11 10 mg/kg iv single dose 1 h after infection, 20 mice/group, 15 days): > 60% | bacterial load in blood (S. aureus (ATCC 29213) [11]; [14]): decrease in the bacterial load in blood

C[C@@H](O)[C@H]1C(=O)N2C(C(=O)O)=C(SCCN=CN)C[C@H]12 [imipenem, reference compound]
increase of survival rate (CRPA): of little effectiveness | increase of survival rate (MRSA): of little effectiveness | increase of survival rate (CRAB): of little effectiveness | increase of survival rate (CRKP): of little effectiveness

KTMMQSGGTFGTFMAIGM [K58-M75]
MBC value P. aeruginosa [12]: 300 µg/mL | MBC value S. aureus (S. aureus (ATCC 29213) [13]): 300 µg/mL

KTMMQSGGTFGTFMAIGMGI [K58-I77]
MBC value P. aeruginosa [12]: 300 µg/mL | MBC value S. aureus (S. aureus (ATCC 29213) [13]): 300 µg/mL

GKTMMQSGGTFGTFMAIGMGIR [G57-R78]
MBC value P. aeruginosa [12]: 280 µg/mL | MBC value S. aureus (S. aureus (ATCC 29213) [13]): 300 µg/mL

KTMMQSGGTFGTFMAIGMG [K58-G76]
MBC value P. aeruginosa [12]: 300 µg/mL | MBC value S. aureus (S. aureus (ATCC 29213) [13]): 300 µg/mL

LMGGIGKTMMQSGGTFGTFMAIGMGIRC [L52-C79]
MBC value P. aeruginosa [12]: 300 µg/mL | MBC value S. aureus (S. aureus (ATCC 29213) [13]): 300 µg/mL

MMQSGGTFGTFMAIGMGIRC [M60-C79]
MBC value P. aeruginosa [12]: > 300 µg/mL | MBC value S. aureus (S. aureus (ATCC 29213) [13]): > 300 µg/mL

LMGGIGKTMMQSGGTFGTFMAIGMGIR [L52-R78]
MBC value P. aeruginosa [12]: 300 µg/mL | MBC value S. aureus (S. aureus (ATCC 29213) [13]): 300 µg/mL

GGIGKTMMQSGGTFGTFMAIGMGIR [G54-R78]
MBC value P. aeruginosa [12]: 300 µg/mL | MBC value S. aureus (S. aureus (ATCC 29213) [13]): 300 µg/mL

GKTMMQSGGTFGTFMAIGMGIRC [G57-C79]
MBC value P. aeruginosa [12]: 250 µg/mL | MBC value S. aureus (S. aureus (ATCC 29213) [13]): 280 µg/mL

IGKTMMQSGGTFGTFMAIGMGIRC [I56-C79]
MBC value P. aeruginosa [12]: 300 µg/mL | MBC value S. aureus (S. aureus (ATCC 29213) [13]): 300 µg/mL

MMQSGGTFGTFMAIGMGIR [M60-R78]
MBC value P. aeruginosa [12]: 300 µg/mL | MBC value S. aureus (S. aureus (ATCC 29213) [13]): 300 µg/mL

KTMMQSGGTFGTFMAIGMGIRC [K58-C79]
MBC value P. aeruginosa [12]: 130 µg/mL | MBC value S. aureus (S. aureus (ATCC 29213) [13]): 150 µg/mL

GGIGKTMMQSGGTFGTFMAIGMGIRC [G54-C79]
MBC value P. aeruginosa [12]: 300 µg/mL | MBC value S. aureus (S. aureus (ATCC 29213) [13]): 300 µg/mL

IGKTMMQSGGTFGTFMAIGMGIR [I56-R78]
MBC value P. aeruginosa [12]: 300 µg/mL | MBC value S. aureus (S. aureus (ATCC 29213) [13]): 300 µg/mL

B1: Romo1: reactive oxygen species modulator 1, chemically synthesized, dissolved in 75% trifluoroethanol (peptide, UniProt P60602 2-79, looked up)
Reactive oxygen species …: PVAVGPYGQSQPSCFDRVKMGFVMGCAVGMAAGALFGTFSCLRIGMRGRELMGGIGKTMMQSGGTFGTFMAIGMGIRC
GFP efflux (GFP-expressing EIEC; 100 nM Romo1, flow cytometry): induced green fluorescent protein (GFP) efflux | bacterial growth (EIEC): inhibited EIEC growth

Source: article PMC7157825, “Romo1-Derived Antimicrobial Peptide Is a New Antimicrobial Agent against Multidrug-Resistant Bacteria in a Murine Model of Sepsis” (mBio, 2020)
